Measurements: US6551774B1, “Diagnostic methods for conditions associated with elevated cellular levels of telomerase activity” (Board of Regents, The University of Texas System, priority 1992, dated 2003)

Tests used:
[1] = tested on: Tetrahymena cells; test: Telomere length in vegetatively grown Tetrahymena by Southern blot; type: cell-based, Tetrahymena thermophila; conditions: up to 1 mM, 5 days of subculturing (15-20 cell generations), 2% PPYS
Protocol: (§1) For analysis of macronuclear DNA from cultures containing the nucleoside analog AZT (Sigma), or controls lacking analog, at various timepoints during vegetative divisions, cells from stationary stock cultures were inoculated into 25 ml thymine-deficient Iso-sensitest broth (‘Isobroth’, Oxoid USA) in 250 ml flasks. Cultures were incubated at 30° C. with shaking (100 rpm) for 48 hours. Cells were counted and plated at 1000 cells/1.5 ml in 24-well plates (Falcon) and grown at 30° C., without shaking, for 48 hours. 5 μl of these log phase cells were used to inoculate 1 ml cultures (Isobroth) containing varied concentrations of nucleoside analog. Thereafter, every 2-4 days cells were transferred, either 5 μl per well, or 1-3 μl using a multi-pronged replicator into fresh 1 ml broth containing AZT. Remaining cells were pelleted and stored at −80° C. until processed for DNA analysis.
(§2) For analysis of macronuclear DNA from vegetative cultures containing the nucleoside analogs Ara-G (Calbiochem), ddG (Calbiochem), or ddI (Calbiochem), or controls lacking analog, stock cultures were grown overnight in 2% PPYS as described. Cells were counted and plated at 100 cells/2 ml in 2% PPYS containing varied amounts of analog, 1% DMSO (Fisher) (as a control for ddG and Ara-G), or 2% PPYS alone. Cells were replica plated into fresh medium every 2-6 days, and remaining cells were pelleted and stored at −80° C. until processed for DNA analysis.
For analysis of macronuclear DNA from vegetative cultures containing d4T (Sigma) or control lacking the analog, stock cultures (SB210 VI) were grown overnight in Isobroth as described. Cells were then counted and duplicate cultures inoculated at 500 cells/5 ml Isobroth in 50 ml conical tubes, and grown at 30° C., shaking 80 rpm. 500-2000 cells were transfered to fresh broth every 2-4 days, and the remainder pelleted and stored at −80° C. until processed for DNA analysis.
Restriction digests, agarose gel electrophoresis, transfer of DNA to Nytran filters (Schleicher and Schuell), and hybridization with ^32P-nick-trapplated or random-primed probes were carried out using standard procedures (Maniatis et.al. 1989). Telomere length was analyzed as described previously for Tetrahymena [Larson 50 Cell, 477, 1987].
Telomere lengths in cells grown in the presence of the different analogs were monitored by Southern blot analysis of DNA samples extracted at a series of time points during the subculturings. The telomeres of cells grown vegetatively in 1 and 5 mM AZT in 2% PPYS medium were reproducibly shortened by up to an average of 170 base pairs compared with the control cultures grown in 2% PPYS in the absence of the drug (FIG. 21A and B). This shortening of telomeres occured in a concentration-dependent manner (FIG. 21B), with at least 50% of the maximal shortening effect occurring by 10 μM AZT, the lowest concentration tested.

[2] = tested on: Tetrahymena cells; test: Progeny formation (cycloheximide resistance) of Tetrahymena conjugated in the presence of analog; type: cell-based, Tetrahymena thermophila; conditions: for # CHX-R: number of cycloheximide-resistant wells; for irreversible disruption of macronuclear development: analog present during conjugation
Protocol: For analysis of cycloheximide (CHX) sensitivity of cells conjugated in the presence of analog, 50 ml cultures of each cell type were grown overnight in 2% PPYS, starved in Dryl's for 18 hours, mated (5×10^5 cells/ml) for 6 hours, then analog was added. Cells were allowed to complete mating in the presence of the analog. Twenty-four hours after mixing, cells were diluted in Dryl's solution, counted and plated at 1 cell per well of 96-well plates in 1% PPYS without analog. Cells were grown for 4 days in a humid chamber at 30° C., without shaking. Cells were then replica plated into 1% PPYS plus 15 μg/ml cycloheximide, allowed to grow for four days before scoring, and percent of CHX-resistant wells was calculated. Because generation of progeny expressing the cycloheximide marker requires successful production of a new macronucleus, cells whose macronuclear development was disrupted by the analog are killed in CHX.
This process involves de novo formation of new macronuclear telomeres in the progeny cells. Macronuclear development in ciliated protozoans such as Tetrahymena involves developmentally programmed, site-specific fragmentation of germline chromosomes into linear subchromosomes, whose ends are healed by de novo addition of telomeres. […] Because of the immediate requirement for telomere addition to fragmented DNA, it is possible that the latter process might be more sensitive to telomerase inhibition than telomere maintenance during vegetative growth. To test whether nucleoside analogs cause inhibition of macronuclear development due to a disruption of telomere formation, we mated two strains of Tetrahymena which are sensitive to cycloheximide, but whose progeny after mating are resistant to cycloheximide. Synchronized mated cells were treated with AZT at concentrations ranging from 10 μM to 5 mM for a period beginning just prior to when macronuclear development begins and continuing during macronuclear development (the period 6-24 hours after mating was initiated). […] In attempts to maximize the effect of AZT, cells were either refed at 6 hrs with 2% PPYS or Isobroth, or starved until 24 hrs (the duration of the AZT treatment). Such starvation arrests macronuclear development at an intermediate stage. When refed, macronuclear development would then be forced to proceed in the presence of the AZT. Control, unmated parental cells were also plated and exposed to drug.

[3] = tested on: Tetrahymena cells; test: Growth, morphology and senescence of Tetrahymena mass-transfer cultures with nucleoside analogs; type: cell-based, Tetrahymena thermophila; conditions: 2% PPYS plus, mass transfer
Protocol: as §1, §2
To test whether such a phenotype could be produced by inhibitors of telomerase in Tetrahymena, duplicate log-phase cultures were grown for prolonged periods in the presence of varying concentrations of analogs. The growth and cell morphology of these cultures were monitored, and DNA was isolated at different times for telomere length analysis. […] From growth rate measurements it was calculated that the cells went through 150 to 250 cell generations in the course of this 50 day period.

[4] = tested on: Tetrahymena cells; test: Single-cell transfer cultures of Tetrahymena with AZT or Ara-G; type: cell-based, Tetrahymena thermophila; conditions: 10 μM AZT; 10 μM or 1 mM Ara-G; 1 to 10 cells per well
Protocol: For analysis of vegetative growth and macronuclear DNA from single-cell cultures containing the nucleoside analogs AZT or Ara-G, SB210 (VI) cells were grown from stationary stock cultures overnight at 30° C. with shaking (100 rpm) in 50 ml 2% PPYS or Isobroth. Cells were counted and added to the appropriate medium plus analog (Ara-G to 1 mM or DMSO to 1% as control in 2% PPYS; AZT to 10 μm or 1 mM, or no addition as control in Isobroth) and plated in 96-well plates (Falcon), 100 μl per well at a density of 1 cell per well. 5 plates were prepared for each analog or control. Wells were scored for cell growth and plates were replica plated every 1-2 days (Ara-G and DMSO plates) or every 2-4 days (AZT and Isobroth control plates) to maintain approximate inoculation densities of 1-10 cells per well for each passage. Occasionally individual wells were passaged by hand (1 μl inoculated per well using a pipettor) into several blank wells, to expand the number of live wells per plate as single-cell cultures were lost over time due to low probability of being transferred at each passage. After passaging, cells were pooled, pelleted and stored at −80° C. until processed for DNA analysis.
To test whether we had missed such a subpopulation of cells, we carried out the same experiments on vegetatively dividing Tetrahymena cells in the presence and absence of drug, but in these experiments the subculturing was carried out by plating cells at an average of 1 to 10 cells per well in microtiter plate wells in the presence of 10 μM and 1 mM AZT, and 10 μM and 1 mM Ara-G. For each drug, cells were plated out in this manner for 30 consecutive days (90 to 150 cell generations) and 16 consecutive days (50 to 80 cell generations) respectively for the 10 μM and 1 mM drug concentrations. DNA was isolated at intervals from combined samplings of the wells for analysis of telomere length.

[5] = target: T1, human telomerase obtained from the tumor cell line 296 (Homo sapiens, UniProt O14746); test: Inhibition of human telomerase from a tumor cell line; type: biochemical
T1 construct: human telomerase obtained from the tumor cell line 296; endogenous in cells; host or cells: tumor cell line 296 (so in the source)
T1 sequence (O14746 whole entry): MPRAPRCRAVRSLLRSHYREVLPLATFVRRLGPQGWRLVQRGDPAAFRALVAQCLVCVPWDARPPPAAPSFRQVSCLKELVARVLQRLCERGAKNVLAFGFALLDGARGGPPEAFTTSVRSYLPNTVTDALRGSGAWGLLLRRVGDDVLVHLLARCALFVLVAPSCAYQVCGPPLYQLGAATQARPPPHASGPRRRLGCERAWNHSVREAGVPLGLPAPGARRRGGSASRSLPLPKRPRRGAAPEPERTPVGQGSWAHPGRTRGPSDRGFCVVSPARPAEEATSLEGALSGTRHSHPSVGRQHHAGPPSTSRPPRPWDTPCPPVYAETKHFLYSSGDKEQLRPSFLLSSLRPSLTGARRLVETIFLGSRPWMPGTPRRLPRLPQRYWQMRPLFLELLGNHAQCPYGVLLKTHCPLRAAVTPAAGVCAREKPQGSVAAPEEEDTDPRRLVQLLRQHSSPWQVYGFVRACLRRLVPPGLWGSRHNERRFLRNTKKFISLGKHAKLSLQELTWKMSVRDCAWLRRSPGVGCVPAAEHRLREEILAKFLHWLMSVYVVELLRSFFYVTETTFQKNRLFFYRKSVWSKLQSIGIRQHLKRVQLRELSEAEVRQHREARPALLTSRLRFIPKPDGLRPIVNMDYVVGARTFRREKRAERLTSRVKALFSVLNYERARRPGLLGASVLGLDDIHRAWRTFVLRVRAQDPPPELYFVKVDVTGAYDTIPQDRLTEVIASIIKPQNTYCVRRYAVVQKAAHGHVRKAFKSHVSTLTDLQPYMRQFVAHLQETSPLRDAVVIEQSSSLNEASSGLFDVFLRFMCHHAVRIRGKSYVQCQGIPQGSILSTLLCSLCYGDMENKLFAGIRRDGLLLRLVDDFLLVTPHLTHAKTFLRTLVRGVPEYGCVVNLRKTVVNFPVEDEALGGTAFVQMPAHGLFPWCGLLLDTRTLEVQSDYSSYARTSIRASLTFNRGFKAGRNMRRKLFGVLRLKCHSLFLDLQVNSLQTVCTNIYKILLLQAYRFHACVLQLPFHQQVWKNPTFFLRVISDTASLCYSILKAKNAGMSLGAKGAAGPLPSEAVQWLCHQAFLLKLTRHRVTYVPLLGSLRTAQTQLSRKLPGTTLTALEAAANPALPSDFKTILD
T1 sequence (O60832 whole entry partner): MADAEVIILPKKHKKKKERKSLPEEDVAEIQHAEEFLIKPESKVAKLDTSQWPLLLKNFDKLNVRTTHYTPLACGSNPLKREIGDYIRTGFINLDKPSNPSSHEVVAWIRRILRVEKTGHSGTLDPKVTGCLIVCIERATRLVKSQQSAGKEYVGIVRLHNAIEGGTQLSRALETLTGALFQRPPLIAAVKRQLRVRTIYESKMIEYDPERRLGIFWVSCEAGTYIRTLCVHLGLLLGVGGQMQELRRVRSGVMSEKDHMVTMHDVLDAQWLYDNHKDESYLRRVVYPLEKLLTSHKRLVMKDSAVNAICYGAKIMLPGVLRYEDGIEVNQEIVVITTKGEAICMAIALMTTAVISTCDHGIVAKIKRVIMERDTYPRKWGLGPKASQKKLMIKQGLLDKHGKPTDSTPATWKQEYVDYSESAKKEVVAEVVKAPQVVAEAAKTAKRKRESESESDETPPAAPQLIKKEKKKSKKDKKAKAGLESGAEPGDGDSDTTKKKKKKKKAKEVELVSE
T1 sequence (Q9NPE3 whole entry partner): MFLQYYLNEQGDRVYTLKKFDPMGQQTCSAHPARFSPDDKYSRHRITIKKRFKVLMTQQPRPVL
T1 sequence (Q9NX24 whole entry partner): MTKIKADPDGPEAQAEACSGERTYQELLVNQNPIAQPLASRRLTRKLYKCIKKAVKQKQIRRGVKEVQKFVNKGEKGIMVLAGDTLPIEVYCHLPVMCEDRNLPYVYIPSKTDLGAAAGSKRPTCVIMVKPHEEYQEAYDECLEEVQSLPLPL
T1 sequence (Q9NY12 whole entry partner): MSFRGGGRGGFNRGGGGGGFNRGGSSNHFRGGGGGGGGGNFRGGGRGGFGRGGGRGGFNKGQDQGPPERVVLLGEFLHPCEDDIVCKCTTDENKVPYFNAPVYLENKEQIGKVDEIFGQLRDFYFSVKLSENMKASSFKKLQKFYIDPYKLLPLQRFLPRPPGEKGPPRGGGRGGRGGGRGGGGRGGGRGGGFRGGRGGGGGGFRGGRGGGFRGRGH

[6] = tested on: lymphoma cell line JY 616; test: Growth of cultured JY lymphoma cells with potential telomerase inhibitors; type: cell-based, human; conditions: 20 μM
Protocol: (§3) The effect of the agents on telomerase activity in intact cells was then studied utilizing the lymphoma cell line JY 616 which were maintained in RPMI 1640 with […] Hepes, 10% FCS, and penicillin/streptomycin (Gibco). The cells were cultured in 6-well plates (Falcon) with 5.0 ML of medium per well in duplicate. Cells were passaged every 7-10 days which corresponded to 5-7 mean population doublings (MPD), and seeded at 3×10^4 cells per well into fresh medium containing analog or control. Cell viability was monitored prior to harvest utilizing trypan blue stain (Gibco) during counting with a hemocytometer. The average ratio of stained: unstained cells (dead:alive) was […]. The intactness of the DNA was measured on a parallel gel by observing its mobility in a gel prior to digestion by a restriction enzyme.

[7] = tested on: MDA 157 human breast cancer cells; test: Proliferation of MDA 157 cancer cells fed oligonucleotides (Example 2); type: cell-based
Protocol: Specifically, MDA 157 human breast cancer cells with an immortal phenotype were seeded at 10,000 cells per well in 12 well tissue culture dishes and fed medium only or medium supplemented with GTO-12 (at 1.0 μM, 0.1 μM, and 0.01 μM). […] Cells fed the GTO-12 oligonucleotide, at 1.0 μM, however, ceased to proliferate after less than 10 doubling. […] The lack of effect of the G+C mixture may reflect the CTO-12 oligonucleotide, competing with or base pairing with the GTO-12 oligonucleotide, this preventing its inhibitory effect on the cancer cell telomerase.

[8] = tested on: IDH4 immortalized human fibroblast cell line; test: IDH4 cells incubated with GTO: population doublings and TRF length (Example 12); type: cell-based; conditions: for population doublings in 90 days: fed every other day (control 45 PDL)
Protocol: As in Example 2, an immortalized human fibroblast cell line, IDH4, which has very short TRFs, was incubated with GTO oligonucleotide. Referring to FIGS. 15 and 16, cells were incubated in regular culture medium containing serum in the presence of 10 μM, 30 μM and 100 μM GTO. The cells were fed fresh phosphodiester GTO oligonucleotide every other day and subcultured when confluent for a total of 90 days. The cells were still growing in GTO after 90 days at all concentrations used even though they grew more slowly at the higher GTO concentrations and went through fewer population doubling (control, 45 PDL; 10 μM GTO 40 PDL; 30 μM 35 PDL; 100 μM 25 PDL). […] The control and 30 μM GTO were passaged without oligonucleotide addition for an additional 90 days (approximately 35-40 PDL). As is illustrated in FIG. 16, the TRFs slowly shorten.

[9] = tested on: lymphoma cell line JY 616; test: Telomere length of JY lymphoma cells by Southern blot; type: cell-based, human; conditions: 10 μM, 9 and 10 weeks
Protocol: The first lane is DNA from the cells at the start of the experiment, the second is the RPMI control, and the third is cells treated with AZT for the times indicated.
Cells were treated over a 10 week period with either 10 μM ddG in 0.01% DMSO or medium with 0.01% DMSO only.
as §3

[10] = 0.001 mM analog (head prints MM), first block for the analog
[11] = 0.001 mM analog, first block for the analog
[12] = 0.01 mM analog (head prints MM), first block for the analog
[13] = 0.01 mM analog, first block for the analog
[14] = 0.1 mM analog (head prints MM), first block for the analog
[15] = 0.1 mM analog, first block for the analog
[16] = 1.0 mM analog (head prints MM), first block for the analog
[17] = 1.0 mM analog, first block for the analog

inhibition of human telomerase [5] | Compound | telomere length compared with control cultures [1] | % CHX-R [2, 10] | # CHX-R [2, 11] | % CHX-R [2, 12] | # CHX-R [2, 13] | % CHX-R [2, 14] | # CHX-R [2, 15] | % CHX-R [2, 16] | # CHX-R [2, 17] | irreversible disruption of macronuclear development [2] | further results
– | O=c1[nH]cnc2c1ncn2[C@H]1CC[C@@H](CO)O1 [ddI] | no changes in telomere length | 83% | 59 | 89% | 85 | 78% | 83 | 91% | 100 | little or no irreversible disruption | –
effective inhibitors of human telomerase | Nc1nc2c(ncn2[C@@H]2O[C@H](CO)[C@@H](O)[C@@H]2O)c(=O)[nH]1 [Ara-G] | – | – | – | 81% | 114 | 80% | 134 | 55% | 89 | little or no irreversible disruption | cell doubling rate, morphology, long term viability [3]: no effects on cell doubling rate, morphology or long term viability; plating efficiency compared with control medium [4]: no changes in the plating efficiency; % CHX-R ([2]; 1.0 mM analog (head prints MM), second block for the analog): 59%; # CHX-R ([2]; 1.0 mM analog, second block for the analog): 51; % CHX-R ([2]; 2.0 mM analog (head prints MM), second block for the analog): 43%; # CHX-R ([2]; 2.0 mM analog, second block for the analog): 40; cell growth [6]: slowed growth
– | 5′-TTAGGGTTAGGG-3′ (listed as DNA, chemistry not given here) [GTO-12, guanidine-rich terminal oligonucleotide-12 bp] | – | – | – | – | – | – | – | – | – | – | doublings after which cells ceased to proliferate ([7]; 1.0 μM): less than 10 doubling; proliferation phenotype ([7]; doses of less than 1.0 μM (0.1 μM, 0.01 μM)): continued replicating in an immortal phenotype; TRF length after 90 days ([8]; 10 μM, 30 μM and 100 μM): regained TRF length in a dose dependent manner; population doublings in 90 days ([8]; 10 μM): 40 PDL; population doublings in 90 days ([8]; 30 μM): 35 PDL; population doublings in 90 days ([8]; 100 μM): 25 PDL
effective inhibitors of human telomerase | Nc1nc2c(ncn2[C@H]2CC[C@@H](CO)O2)c(=O)[nH]1 [ddG] | no changes in telomere length | 84% | 86 | – | – | 85% | 73 | 77% | 51 | little or no irreversible disruption | telomere length compared to the DMSO control [9]: decrease in telomere length
